Results: patent publication US4650811A, “Ethenylphenol-indoles having antiarythmic utility” (Roussel Uclaf, priority 1984, dated 1987)

Assays:
[1] = tested on: Rat caudal arteries; experiment: Anti-calcic activity in vitro: inhibition of K+-depolarized, Ca2+-induced contraction of rat caudal arteries; details: rat caudal artery, depolarized with 100 mM K+, Ca2+ 0.1 to 3.0 mM, 37° C.
Experimental: Rat caudal arteries were cut into a spiral and were attached to tension sensors and were kept in tanks of […] of Krebs buffer-sodium bicarbonate (NaCl: 120.8 mM, KCl: 5.9 mM, MgCl2 : 1.2 mM, NaH2 PO4 : 1.2 mM, NaHCO3 : 15.5 mM, glucose: 12.6 mM) at 37° C. gassed with a mixture of O2 : 95% - CO2 : 5%. The preparations were depolarized with a buffer solution with a concentration of 100 mM in K^+ ions (NaCl: 26.7 mM, KCl: 100 mM, MgCl2 : 1.2 mM, NaH2 PO4 : 1.2 mM, NaHCO3 : 15.5 mM, glucose: 12.6 mM). Calcium chloride was added in a volume of 250 μ1 to obtain a range of increasing concentrations of Ca^2+ ions from 0.1 to 3.0 mM. The contractions of the arteries were recorded and a control range was established in this way. The operation was repeated every 15 minutes with the Ca^2+ range of ions and the preparation was washed four times after each range.
When a stable response had been obtained, the operation with the range of Ca^2+ ions was carried out in the presence of different concentrations of the product under test until a stable response was obtained. The contractions of the arteries depend on the entry of the Ca^2+ ions into the cells of the smooth muscles and are caused by the depolarization of the smooth muscle by the K^+ ions and by the action of the noradrenaline liberated at the presynaptic level. By repeating the operation with the arteries denervated by the action of 6-OH dopamine, the specific action due to the noradrenaline was suppressed.

[2] = tested on: mice; experiment: Acute toxicity after oral administration to mice; assay type: in vivo
Experimental: The lethal doses LD0 for the different test compounds were evaluated after oral administration to mice and the maximum dose not causing any mortality in 8 days was called LD0.

[3] = tested on: disorders of the cardiac rhythm (aconitine) in rats; experiment: Anti-arrhythmic activity in rats (aconitine-induced disorders of the cardiac rhythm); assay type: in vivo, rat; details: intravenous, aconitine 10 μg/min five minutes after product, in comparison with controls
Experimental: Male rats weighing 300-350 g anesthetized by intraperitoneal route with 1.20 g/Kg of urethane were tracheotomized and submitted to artifical respiration (40-50 insufflations of 3 ml/minute). Needles were implanted sub-cutaneously to record the electro-cardiogram of the rats on the signal in derivation DII. The products under test were administered by intravenous route.
Five minutes after the product was administered, the jugular vein of the rats was perfused with 10 μg/min. of an aconitine solution and the time of appearance of disorders of the cardiac rhythm was noted. The results were expressed in percentage of the extension of the time of appearance of disorders of the cardiac rhythm in comparison with controls and as a function of the dose of the product under test.

[4] = biological target: T1, β1 - adrenergic receptor (Rattus norvegicus, UniProt P18090); experiment: β1 - adrenergic receptor affinity (3H dihydroalprenolol displacement, rat cortices); assay type: binding; details: ARL=100 CD/CX relative to propranolol; 3H dihydroalprenolol 10^-9 M, 37° C., 10 minutes
T1 construct: 10 cortices removed from the brains of rats; from tissue; host or cells: rat brain cortex, membrane preparation
T1 sequence (P18090 whole entry): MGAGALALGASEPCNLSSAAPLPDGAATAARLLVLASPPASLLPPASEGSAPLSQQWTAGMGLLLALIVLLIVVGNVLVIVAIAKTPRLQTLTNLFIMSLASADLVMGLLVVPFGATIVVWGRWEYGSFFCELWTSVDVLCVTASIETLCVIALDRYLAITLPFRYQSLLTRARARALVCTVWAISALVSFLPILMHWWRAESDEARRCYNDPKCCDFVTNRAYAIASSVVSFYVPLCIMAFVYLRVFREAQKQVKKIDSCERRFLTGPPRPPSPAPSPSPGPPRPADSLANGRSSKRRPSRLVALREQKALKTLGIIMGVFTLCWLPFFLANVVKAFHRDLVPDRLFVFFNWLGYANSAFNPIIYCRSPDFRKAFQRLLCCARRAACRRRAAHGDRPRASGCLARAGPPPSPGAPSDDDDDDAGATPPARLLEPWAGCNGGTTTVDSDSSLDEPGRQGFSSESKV
Experimental: 10 cortices removed from the brains of rats weighing on the average 150 g were homogenized in 90 ml of 0.32 M sucrose and after centrifuging the homogenized mixture at 1,000 g for 20 minutes at 0° C., the supernatant was centrifugated at 30,000 g for 15 minutes at 0° C. to +4° C. The residue was suspended in 120 ml of Tris HCl 50 mM buffer pH 7.7 and centrifuged at 30,000 g for 15 minutes at 0° C. to +4° C. The new residue obtained was suspended in 480 ml of Krebs Tris HCl 50 mM buffer, 7.7 pH. Then, 2 ml of the suspension were incubated for 10 minutes at 37° C. in the presence of ^3 H dihydroalprenolol at a concentration of 10^-9 M:
(§1) (ii) with increasing concentrations of the product under test, or
(iii) to determine the non-specific fixation, with non-radioactive propranolol at a concentration of 10^-5 M.
The incubated suspensions were filtered on Whatman GF/C and the filters were washed three times with 5 ml of Krebs Tris HCl buffer pH 7.7 at 0° C. The radio-activity of the filters was measured by liquid scintillation. The affinity of the product for the adrenergic receptors was given relative to propranolol as reference product,
CD=concentration of propranolol inhibiting 50% of the specific fixation of the ^3 H dihydroalprenolol: CX=concentration of the product under test inhibiting 50% of the specific fixation of the ^3 H dihydroalprenolol.

[5] = biological target: T2, β2 - adrenergic receptor (Rattus norvegicus, UniProt P10608); experiment: β2 - adrenergic receptor affinity (3H dihydroalprenolol displacement, rat cerebelli); assay type: binding; details: ARL=100 CD/CX relative to propranolol; 3H dihydroalprenolol 10^-9 M, 37° C., 10 minutes
T2 construct: The cerebelli removed from the brains of male rats; from tissue; host or cells: rat cerebellum, membrane preparation
T2 sequence (P10608 whole entry): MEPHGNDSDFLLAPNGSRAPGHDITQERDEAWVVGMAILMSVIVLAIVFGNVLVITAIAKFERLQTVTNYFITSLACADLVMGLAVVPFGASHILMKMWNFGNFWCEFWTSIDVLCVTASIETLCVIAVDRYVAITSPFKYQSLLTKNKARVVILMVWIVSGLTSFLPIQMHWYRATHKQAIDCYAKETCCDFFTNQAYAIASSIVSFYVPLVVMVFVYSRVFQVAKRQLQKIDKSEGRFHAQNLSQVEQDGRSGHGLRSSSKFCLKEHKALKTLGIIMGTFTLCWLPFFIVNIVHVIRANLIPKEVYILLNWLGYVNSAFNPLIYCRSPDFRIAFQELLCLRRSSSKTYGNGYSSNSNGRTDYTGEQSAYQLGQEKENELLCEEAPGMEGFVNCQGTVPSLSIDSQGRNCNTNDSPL
Experimental: The cerebelli removed from the brains of male rats weighing on the average 150 g were homogenized in 90 ml of 0.32 M sucrose and after centrifuging the homogenized mixture at 1,000 g for 20 minutes at 0° C., the supernatant was centrifuged at 30,000 g for 15 minutes at 0° C. to +4° C. The residue was suspended in 120 ml of Tris HCl 50 mM buffer pH 7.7, and centrifuged at 30,000 g for 15 minutes at 0° to +4° C. The new residue obtained was suspended in 480 ml of Krebs Tris HCl buffer, pH 7.7. 2 ml of the suspension were then incubated at 37° C. for 10 minutes in the presence of 3H dihydroalprenolol at a concentration of 10^-9 M:
(ii) with increasing concentrations of the product under test
(iii) to determine the non-specific fixation, with non-radio-active propranolol at a concentration of 10^-5 M. The incubated suspensions were filtered on Whatman GF/C and the filters were washed three times with 5 ml of Krebs Tris HCl buffer pH 7.7 at 0° C.
The radio-activity of the filters was measured by liquid scintillation. The affinity of the test product for β2 - adrenergic receptors was given relative to propranolol as reference product.
CD=concentration of propranolol inhibiting 50% of the specific fixation of ^3 H dihydroalprenolol:
CX=concentration of the product under test inhibiting 50% of the specific fixation of the ^3 H dihydroalprenolol.

[6] = tested on: α2 - adrenergic receptor; experiment: α2 - adrenergic receptor affinity (3H rauwolscine displacement, rat cortices); assay type: binding; details: ARL=100 CD/CX relative to phentolamine, 25° C., 45 minutes
Experimental: 10 cortices removed from the brains of male rats weighing on the average […] were homogenized in 90 ml of 0.32 M sucrose and after centrifuging the homogenized mixture at 1,000 g for 10 minutes at 0° C., the supernatant was centrifuged at 30,000 g for 10 minutes at 0° C. to +4° C. The residue was suspended in 240 ml of Tris HCl 50 mM buffer, pH 7.7 and centrifuged at 30,000 g for 15 minutes at 0° to +4° C. The new residue obtained was suspended in 480 ml of NaKPO4 50 mM buffer, pH 7.4. Then, 2 ml of suspension were incubated for 45 minutes at 25° C. in the presence of ^3 H rauwolscine at a concentration of […]:
as §1
(iii) to determine the non-specific fixation, with non-radioactive phentolamine at a concentration of 10^-5 M.
The incubated suspensions were filtered on Whatman GF/C and the filters were washed three times with 5 ml of NaKPO4 buffer, pH 7.4, at 0° C. The radio-activity of the filters was measured by liquid scintillation. The affinity of the product under test for the α2 - adrenergic receptors were given relative to phentolamine as reference product. CD=concentration of phentolamine inhibiting 50% of the specific fixation of ^3 H rauwolscine:
CX=concentration of the product under test inhibiting 50% of the specific fixation of ^3 H rauwolscine.

[7] = tested on: arterial pressure of male rats of Wistar strain; experiment: Hypotensive activity (carotid arterial pressure in anesthetized rats); assay type: in vivo, rat (Wistar); details: 1 mg/Kg, intravenous, vs initial control arterial pressure
Experimental: The hypotensive activity was studied on male rats of Wistar strain weighing about 300 g and anesthetized with 50 mg/Kg by intravenous route of sodium pentobarbital. The product tested was administered by intravenous route in the jugular vein and the pressure in the carotid artery was measured before and after administration of the product tested. The following table reports the variations expressed in percentage of the arterial pressure after administration of the product tested by comparison with the initial control arterial pressure.

Row | Compound | IC50 [1] | LD0 (maximum dose not causing any mortality in 8 days) [2] | Percentage of extension of time of appearance of disorders of the cardiac rhythm ([3]; 5 mg/Kg) | ARL (relative affinity) [4] | ARL (relative affinity) [5] | ARL (relative affinity) [6] | Percentage of extension of time of appearance of disorders of the cardiac rhythm ([3]; 10 mg/Kg) | % Variation of the arterial pressure ([7]; 1 min. after administration) | % Variation of the arterial pressure ([7]; 5 min. after administration) | % Variation of the arterial pressure ([7]; 10 min. after administration) | % Variation of the arterial pressure ([7]; 30 min. after administration)
1 | CC(C)(C)NCCCOc1ccccc1/C=C/c1cccc2[nH]ccc12 [Example 6, N-(1,1-dimethylethyl)-3-[2-[2-(1H-indol-4-yl)-ethenyl]-phenoxy]-propanamine] | 2000 nM | > 400 mg/kg | 49% |  |  |  |  |  |  |  | 
2 | CC(C)NCC(O)COc1ccc(/C=C/c2cccc3[nH]ccc23)cc1 (stereo not drawn) [Example 4] | 3500 nM | 60 mg/kg |  | 1.0% | 0.03% | 0.0% |  |  |  |  | 
3 | CC(C)(C)NCC(O)COc1ccccc1/C=C/c1cccc2[nH]ccc12 (stereo not drawn) [Example 2, 1-[(1,1-dimethylethyl)-amino]-3-[2-[2-(1H-indol-4-yl)-ethenyl]-phenoxy]-2-propanol] | 1200 nM | > 100 mg/kg | 30% | 198% | 172% |  | 110% | -17% | -10% | -10% | -14%
4 | CC(C)(C)NCC(O)COc1ccccc1/C=C/c1cccc2c1CC(=O)N2 (stereo not drawn) [Example 9, 1,3-dihydro-4-[2-[2-[3-[(1,1-dimethylethyl)-amino]-2-hydroxypropoxy]-phenyl]-ethenyl]-2H-indol-2-one] | 1400 nM |  | 167% |  |  |  |  |  |  |  | 
5 | CC(C)(C)NCC(O)COc1ccc(/C=C/c2cccc3c2CC(=O)N3)cc1 (stereo not drawn) [Example 5, 1,3-dihydro-4-[2-[4-[3-[(1,1-dimethylethyl)-amino]-2-hydroxypropoxy]-phenyl]-ethenyl]-2H-indol-2-one] | 2500 nM | > 100 mg/kg |  |  |  |  |  |  |  |  | 
6 | CC(C)(C)NCC(O)COc1ccccc1CCc1cccc2[nH]ccc12 (stereo not drawn) [Example 8, 1-[(1,1-dimethylethyl)-amino]-3-[2-[2-(1H-indol-4-yl)-ethyl]-phenoxy]-2-propanol] | 1500 nM | > 400 mg/kg | 162% |  |  |  |  |  |  |  | 
7 | CC(C)(C)NCC(O)COc1ccc(/C=C/c2cccc3[nH]ccc23)cc1 (stereo not drawn) [Example 3, 1-[(1,1-dimethylethyl)-amino]-3-[4-[2-(1H-indol-4-yl)-ethenyl]-phenoxy]-2-propanol] | 600 nM | > 100 mg/kg |  | 0.8% | 0.1% | 0.7% |  |  |  |  | 
8 | CC(C)NCC(O)COc1ccccc1/C=C/c1cccc2[nH]ccc12 (stereo not drawn) [Example 1, 1-[2-[2-(1H-indol-4-yl)-ethenyl]-phenoxy]-3-[isopropyl-amino]-2-propanol] | 4000 nM | > 100 mg/kg |  | 92.5% | 18% | 0.1% |  | -11% | -11% | -12% | -13%
9 | CC(C)(C)NCCCOc1ccccc1CCc1cccc2[nH]ccc12 [Example 12, N-(1,1-dimethylethyl)-3-[2-[2-(1H-indol-4-yl)-ethyl]-phenoxy]-propanamine] | 300 nM |  |  |  |  |  |  |  |  |  | 
10 | CC(C)(C)NCCOc1ccccc1/C=C/c1cccc2[nH]ccc12 [Example 11, N-(1,1-dimethylethyl)-2-[2-[2-(1H-indol-4-yl)-ethenyl]-phenoxy]-ethanamine (trans E)] |  | 200 mg/kg | 41% |  |  |  |  |  |  |  | 
